Results: patent publication US20030134892A1, “Compositions for treatment of head and neck cancers, and methods of making and using the same” (priority 2001, published 2003)

How the values were obtained:
JHU012 cells = experiment: Experiment 1: human orthotopic squamous cell head and neck cancer model, tumor size after treatment; format: in vivo, Nu/nu mice; settings: 45 days following treatment
Procedure: The efficacy of paclitaxel microsphere formulations in human orthotopic squamous cell head and neck cancer models were tested below.
Nu/nu mice were injected with 1×10^7 JHU012 cells into the anterior floor of mouth near the genial tubercle of the mandible. 12 days following cell injection, the tumors were approximately 80 mm^3. […] 45 days following treatment, the animals were sacrificed and tumors measured again.

[1] = system: human head and neck cancer cell line; experiment: Experiment 2: human tumor model with radiation, orthotopic tumor in the neck of a nude mouse; format: in vivo; settings: injected intratumorally three week post cell injection, followed by fractionated radiation (RT) 2 gy/day for 4 days
Procedure: In this study, the model is also a human head and neck cancer cell line but the tumor was grown orthotopically in the neck of a nude mouse. Three week post cell injection the tumors were injected intratumorally with paclimer and then followed by fractionated radiation, 2 gy/day for 4 days.

| Structure (SMILES) | Tumor Size at end of Experiment 1 (JHU012 cells; 0.15 mmol/kg/day oral, 4 days) | Tumor Size at end of Experiment 1 (JHU012 cells; 24 mg/kg i.p., tumors approx. 80 mm^3 at treatment) | Tumor Size [1] |
| --- | --- | --- | --- |
| O=c1[nH]cc(F)c(=O)[nH]1 [5-fu, 5-fluorouracil] | 518.7 ± 96.3 mm^3 | – | – |
| CC(=O)O[C@H]1C(=O)[C@@]2(C)[C@H]([C@H](OC(=O)c3ccccc3)[C@]3(O)C[C@H](OC(=O)[C@H](O)[C@@H](NC(=O)c4ccccc4)c4ccccc4)C(C)=C1C3(C)C)[C@]1(OC(C)=O)CO[C@@H]1C[C@@H]2O [ptx, paclitaxel] | – | 973.3 ± 91.7 mm^3 | 102.3 ± 37.0 mm^3 |
